# In publication PMC7503509, “Polydopamine Linking Substrate for AMPs: Characterisation and Stability on Ti6Al4V” (Materials, 2020):
# Read-outs that look alike come from different tables or passages of the source. No end group written: not given here.
# How the values were obtained:
# [1] = test system: Staphylococcus aureus (S. aureus, F77/NCTC8532); format: cell-based; conditions: NCTC8532, 18 h
# Procedure: (§1) The minimum inhibition concentration (MIC) is used to determine the lowest concentration of antimicrobial agent needed to inhibit the visible growth of a bacteria strain after overnight incubation. All the bacteria strains were kindly provided by Dr Mark Webber of the Quadram Institute Bioscience (Norwich, UK; Escherichia coli (E. coli, […]), Pseudomonas aeruginosa (P. aeruginosa, PAO1) and Staphylococcus aureus (S. aureus, […]/NCTC8532)). Lysogen broth (LB broth) and agar were purchased from Sigma-Aldrich, Merck Life Science UK Limited, Dorset, UK. Fresh LB agar culture plates were prepared by pouring ≈10 mL of an autoclaved warm mixture of LB broth (2.5%) and bacteriological agar (1.5%) dissolved in dH2O. The agar plate was streaked and incubated overnight at 36 °C. A single bacterial colony was chosen and grown in 5 mL broth overnight under agitation at 36 °C. Subsequently, 50 μL of LB broth was added to wells 2-12 of a 96-well culture plate. AMPs were diluted to a concentration of 256 μg/mL, added to well 1, and diluted two-fold down to column 11. Column 12 was left empty, with no AMPs added. Then, 50 μL of the diluted overnight bacteria culture was added to the wells and incubated at 36 °C for 18 h to allow bacteria to grow. After incubation, the well plates were examined for bacterial growth and the lowest concentration of AMPs where clear liquid was observed was assumed to be the minimum inhibitory concentration. Three measurements for each peptide and against each type of bacteria were performed and the average values were obtained.
# [2] = test system: E. coli (I364), P. aeruginosa (PAO1), S. aureus (F77); format: cell-based; conditions: 18 h
# Procedure: as §1
# [3] = test system: Escherichia coli (E. coli, I364); format: cell-based; conditions: I364, 18 h
# Procedure: as §1
# [4] = test system: Pseudomonas aeruginosa (P. aeruginosa, PAO1); format: cell-based; conditions: PAO1, 18 h
# Procedure: as §1
# [5] = test system: Escherichia coli (E. coli, I364); conditions: comparison value for LL-37; cited from earlier work
# Source text: Table 3 MIC values for the designed KR12 analogues compared to the LL-37 human cathelicidin. | column: MIC Values (μM) / E. coli ([…])
# [6] = test system: Pseudomonas aeruginosa (P. aeruginosa, PAO1); conditions: comparison value for LL-37; cited from earlier work
# Source text: Table 3 MIC values for the designed KR12 analogues compared to the LL-37 human cathelicidin. | column: MIC Values (μM) / P. aeruginosa (PAO1)
# [7] = test system: Staphylococcus aureus (S. aureus, F77/NCTC8532); conditions: comparison value for LL-37; cited from earlier work
# Source text: Table 3 MIC values for the designed KR12 analogues compared to the LL-37 human cathelicidin. | column: MIC Values (μM) / S. aureus ([…])
# [8] = test system: E. coli (I364), P. aeruginosa (PAO1), S. aureus (F77); conditions: mean of the literature values for LL-37; cited from earlier work
# Source text: Table 3 MIC values for the designed KR12 analogues compared to the LL-37 human cathelicidin. | column: MIC Values (μM) / Geometric Mean
substance,measurement,setting,value
KRIVRIKFR [KR12-5911],MIC Values S. aureus (F77),[1],8 µM
same,MIC Values Geometric Mean,[2],3.5 µM
same,MIC Values E. coli (I364),[3],0.5 µM
same,MIC Values P. aeruginosa (PAO1),[4],2 µM
"KRIVQRIKDFLR [KR12, reference compound]",MIC Values S. aureus (F77),[1],8 µM
same,MIC Values Geometric Mean,[2],4.0 µM
same,MIC Values E. coli (I364),[3],2 µM
same,MIC Values P. aeruginosa (PAO1),[4],2 µM
KIRVRIKFR [KR12/32-5911],MIC Values S. aureus (F77),[1],2 µM
same,MIC Values Geometric Mean,[2],3.33 µM
same,MIC Values E. coli (I364),[3],4 µM
same,MIC Values P. aeruginosa (PAO1),[4],4 µM
KIRVQRIKDFLR [KR12/32],MIC Values S. aureus (F77),[1],32 µM
same,MIC Values Geometric Mean,[2],13.33 µM
same,MIC Values E. coli (I364),[3],4 µM
same,MIC Values P. aeruginosa (PAO1),[4],4 µM
"LL-37: human cathelicidin, native peptide of KR12",MIC Values E. coli (I364),[5],8 µM
same,MIC Values P. aeruginosa (PAO1),[6],8 µM
same,MIC Values S. aureus (F77),[7],4 µM
same,MIC Values Geometric Mean,[8],6.67 µM
